Results published in patent publication US12552811B2, “Immunosuppressant, and preparation method therefor and use thereof” (Abbisko Therapeutics Co., Ltd., priority 2020, dated 2026).

Key:
[1] = target: interaction between PD-1 and PD-L1 (Homo sapiens (Human), UniProt Q9NZQ7); assay: PD1-PDL1 HTRF binding activity test; conditions: Cisbio PD-1/PD-L1 binding assay kit
Method: I. PD1-PDL1 HTRF Binding Activity Test
The effect of compounds of the examples of the present invention on the interaction between PD-1 and PD-L1 was determined by the PD-1/PD-L1 binding assay kit from Cisbio (#64ICP01PEG or 64ICP01PEH). The detailed experimental process was as follows: • 1) Pre-diluted compound solution, 4 μL of Tag1-PD-L1 and 4 μL of Tag2-PD1 were added to each well of a 384-well plate: • 2) After the mixture was incubated at room temperature for 15 min, 5 μL of anti-Tag1-Eu3+ antibody and 5 μL of anti-Tag2-XL665 antibody were then added; • 3) After incubated for 2 hrs at room temperature or overnight at 4° C., plates were read on Envision of Pelkin Elmer; and readings at 665 nm and 620 nm were recorded, and the ratio of the two readings was taken as a reading for each well; • 4) The reading of each well after compound treatment was compared with the reading of DMSO treated wells to obtain the percent inhibition of the compound; • 5) IC50 values of compounds and positive compounds of the examples of the present invention were determined by non-linear regression analysis of percent inhibition at different compound concentrations. II. Jurkat Reporter Gene Cellular Assay

[2] = Jurkat reporter gene cellular assay; type: cell-based; conditions: Homo sapiens; Jurkat/NF-κB-luc/PD1 + Raji-PD-L1 coculture, OKT3 1 μg/mL, 6 hrs, activation fold; read-out: Cell Activity EC50
Method: The effect of compounds of the examples of the present invention and positive compounds on the interaction between PD-1 and PD-L1 expressed on cell surfaces, and the related influence on T cell functions, were determined by a Jurkat reporter gene cellular assay.
Briefly, the reporter gene plasmid of NF-κB-luc and the plasmid of human PD-1 were transfected into Jurkat cells to establish a stably transfected cell line capable of stably expressing both PD-1 and NF-κB-Luc reporter genes; the expression level of PD-1 on the cell surface was confirmed by flow cytometry; and the expression of the reporter gene was confirmed via the response of the reporter gene stimulated by OKT-3 and Raiji cells.
In addition, the plasmid of human PD-L1 was transfected into Raji cells to obtain a cell line capable of stably expressing PD-L1. Jurkat/NF-κB-luc/PD1 cells and Raji-PD-L1 cells were then cocultured and stimulated with OKT-3. On this basis, the compounds were added, and the enhancement of the signal pathway of T cell activation by the inhibitory effect of the compounds on the interaction between PD-1 and PD-L1 was evaluated by readings of reporter gene responses. The specific experimental process was as follows: • 1) 30 μL of compound or antibody solution was added to each well of a white 96-well plate (coming, 3610) at different diluted concentrations, and 10 μL of OKT3 (Biolegend, 317326) was then added (the final concentration of OKT3: 1 μg/mL); • 2) 20 μL of Raji-PD-L1 cell suspension was added to each well with 5*10^4 cells for each well, and was incubated in an incubator for 20 min: • 3) 20 μL of Jurkat/NF-κb-luc/PD-1 cell suspension was added to each well with 5*10^4 cells for each well, and well mixed, and 6 hrs later, Bright-glo (Promega, E2620) was applied and plates were read on Envision; • 4) The reading of each well treated with the compound was compared with the reading of each well treated with DMSO to obtain the activation fold of the compound; • 5) EC50 values of compounds and positive compounds of the examples of the present invention were determined by non-linear regression analysis of activation folds at different compound concentrations.

[3] = Pharmacokinetic assay in mice; type: in vivo; conditions: male, mouse; ICR mice, PO 10 mg/kg, plasma
Method: III. Pharmacokinetic Assay in Mice
The purpose of this study was to study the pharmacokinetic behaviors of some compounds of the present invention, and administration routes were: per oral administration (PO) to ICR mice at a dose of 10 mg/kg.
The compounds used in this test came from the compounds of the specific examples of the present invention.
ICR mice, male, N=3, with the original source of Shanghai Sippr-BK Laboratory Animal Co. Ltd.
2.3 Preparation and Administration of Drug
The compounds were weighed, and dissolved in a solvent of 0.5% SDS+0.5% CMCNa. The mixture solutions were mixed well by shaking and ultrasonic treatment to obtain colorless clear solutions. The solutions were orally administered to nine mice after an overnight fast. The dosage of administration was 10 mg/kg.
• 1) With about 90 μL/time point, blood was drawn from the submaxillary vein, and heparin sodium was added for anticoagulation. The blood samples were placed onto the ice, and were centrifuged (centrifugation conditions: 8000 r/min, 6 min, 2-8° C.) within 1 hr to obtain plasmas. • 2) The time points for blood sampling were at 0 hr, 0.25 hr, 0.5 hr, 1 hr, 2 hrs, 4 hrs, 6 hrs, 8 hrs and 24 hrs after administration. The samples were stored in a refrigerator at −20° C. • 3) 40 μL of plasma sample was added to 160 μL of cold acetonitrile containing an internal standard, and the mixture solution was vortexed for 3 min and centrifuged at 11,000 r/min for 5 min. • 4) 100 μL of supernate was taken and added to 100 μL of water, and 5 μL of the sample was taken and analyzed by LC/MS/MS.
The compounds from some representative examples of the present invention were administered and tested according to the above method, and their prototype compounds were detected.

Chain of interaction between PD-1 and PD-L1 (Q9NZQ7 19-238): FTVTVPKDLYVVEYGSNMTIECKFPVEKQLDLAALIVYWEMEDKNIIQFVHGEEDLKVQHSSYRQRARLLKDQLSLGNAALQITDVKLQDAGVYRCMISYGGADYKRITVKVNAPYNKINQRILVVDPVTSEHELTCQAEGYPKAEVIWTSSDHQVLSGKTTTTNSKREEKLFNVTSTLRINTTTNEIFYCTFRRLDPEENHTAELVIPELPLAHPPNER

| Structure (SMILES) | EC50 [2] | other results |
| --- | --- | --- |
| CCN1CCc2cc(C(=O)Nc3cccc(-c4cccc(NC(=O)c5nc6c(n5C)CCN(CCC57CCC(C(=O)O)(CC5)C7)C6)c4Cl)c3Cl)ncc2C1 [Example 3, 4-(2-(2-((2,2′-dichloro-3′-(7-ethyl-5,6,7,8-tetrahydro-2,7-naphthyridine-3-carboxamido)-[1,1′-biphenyl]-3-yl)carbamoyl)-1-methyl-1,4,6,7-tetrahydro-5H-imidazo[4,5-c]pyridin-5-yl)ethyl)bicyclo[2.2.1] heptane-1-carboxylic acid] | 47.6 nM | IC50 [1]: 0.174 nM |
| Cn1c(C(=O)Nc2cccc(-c3cccc(NC(=O)c4cc5c(cn4)CN(C4COC4)CC5)c3Cl)c2Cl)nc2c1CCN(CCC13CCC(C(=O)O)(CC1)C3)C2 [Example 11, 4-(2-(2-((2,2′-dichloro-3′-(7-(oxetan-3-yl)-5,6,7,8-tetrahydro-2,7-naphthyridine-3-carboxamido)-[1,1′-biphenyl]-3-yl)carbamoyl)-1-methyl-1,4,6,7-tetrahydro-5H-imidazo[4,5-c]pyridin-5-yl)ethyl)bicyclo [2.2.1]heptane-1-carboxylic acid] | 54.4 nM | IC50 [1]: 0.109 nM |
| CC(C)N1CCc2cc(C(=O)Nc3cccc(-c4cccc(NC(=O)c5cc(C6CC6)c(CN6CCCC[C@H]6C(=O)O)cn5)c4Cl)c3Cl)ncc2C1 [Example 32, (S)-1-((4-cyclopropyl-6-((2,2′-dichloro-3′-(7-isopropyl-5,6,7,8-tetrahydro-2,7-naphthyridine-3-carboxamido)-[1,1′-biphenyl]-3-yl)carbamoyl)pyridin-3-yl)methyl)piperidine-2-carboxylic acid] | 25 nM | AUC(0-t) [3]: 10200 ng·h/mL; Cmax [3]: 2570 ng/mL; MRT [3]: 2.9 h; Tmax [3]: 0.5 h; half-life [3]: 1.3 h |
| CC(C)N1CCc2cc(C(=O)Nc3cccc(-c4cccc(NC(=O)c5ccc6c(n5)CN(CCC57CCC(C(=O)O)(CC5)C7)CC6)c4Cl)c3Cl)ncc2C1 [Example 68, 4-(2-(2-((2,2′-dichloro-3′-(7-isopropyl-5,6,7,8-tetrahydro-2,7-yridine-3-carboxamido)-[1,1′-biphenyl]-3-yl)carbamoyl)-5,8-dihydro-1,7-naphthyridin-7(6H)-yl)ethyl)bicyclo[2.2.1]heptane-1-carboxylic acid] | 178 nM | – |
| CC(C)N1CCc2cc(C(=O)Nc3cccc(-c4cccc(NC(=O)c5ccc6c(n5)CCN(CCC57CCC(C(=O)O)(CC5)C7)C6)c4Cl)c3Cl)ncc2C1 [Example 69, 4-(2-(2-((2,2′-dichloro-3′-(7-isopropyl-5,6,7,8-tetrahydro-2,7-naphthyridine-3-carboxamido)-[1,1′-biphenyl]-3-yl)carbamoyl)-7,8-dihydro-1,6-naphthyridin-6(5H)-yl)ethyl)bicyclo[2.2.1]heptane-1-carboxylic acid] | 381 nM | – |
| C[C@@H](O)CN1CCc2cc(/C(F)=C/c3cccc(-c4cccc(Nc5nccc6cc(CN[C@H](CO)C(=O)O)cnc56)c4Cl)c3Cl)ncc2C1 [Example 70, ((8-((2,2′-dichloro-3′-((Z)-2-fluoro-2-(7-((R)-2-hydroxypropyl)-5,6,7,8-tetrahydro-2,7-naphthyridin-3-yl)vinyl)-[1,1′-biphenyl]-3-yl)amino)-1,7-naphthyridin-3-yl)methyl)-D-serine] | 946 nM | – |
| CC(C)N1CCc2cc(/C(F)=C/c3cccc(-c4cccc(Nc5nccc6cc(CN[C@H](CO)C(=O)O)cnc56)c4Cl)c3Cl)ncc2C1 [Example 71, (Z)-((8-((2,2′-dichloro-3′-(2-fluoro-2-(7-isopropyl-5,6,7,8-tetrahydro-2,7-naphthyridin-3-yl)vinyl)-[1,1′-biphenyl]-3-yl)amino)-1,7-naphthyridin-3-yl)methyl)-D-serine] | 772 nM | – |
| CCOC(=O)[C@@H](CO)NCc1cnc2c(Nc3cccc(-c4cccc(/C=C(\F)c5cc6c(cn5)CN(C[C@@H](C)O)CC6)c4Cl)c3Cl)nccc2c1 [Example 72, ethyl ((8-((2,2′-dichloro-3′-((Z)-2-fluoro-2-(7-((R)-2-hydroxypropyl)-5,6,7,8-tetrahydro-2,7-naphthyridin-3-yl)vinyl)-[1,1′-biphenyl]-3-yl)amino)-1,7-naphthyridin-3-yl)methyl)-D-serinate] | 1430 nM | – |
| CCOC(=O)[C@@H](CO)NCc1cnc2c(Nc3cccc(-c4cccc(/C=C(\F)c5cc6c(cn5)CN(C(C)C)CC6)c4Cl)c3Cl)nccc2c1 [Example 73, ethyl (Z)-((8-((2,2′-dichloro-3′-(2-fluoro-2-(7-isopropyl-5,6,7,8-tetrahydro-2,7-naphthyridin-3-yl)vinyl)-[1,1′-biphenyl]-3-yl)amino)-1,7-naphthyridin-3-yl)methyl)-D-serinate] | 7640 nM | – |
| Cc1c(/C=C(\F)c2cc3c(cn2)CN(CCC24CCC(C(=O)O)(CC2)C4)CC3)cccc1-c1cccc(Nc2nccc3cc(CNC[C@@H]4CCC(=O)N4)cnc23)c1C [Example 74, (S,Z)-4-(2-(6-(2-(2,2′-dimethyl-3′-((3-((((5-oxopyrrolidin-2-yl)methyl)amino)methyl)-1,7-naphthyridin-8-yl)amino)-[1,1′-biphenyl]-3-yl)-1-fluorovinyl)-3,4-dihydro-2,7-naphthyridin-2(1H)-yl)ethyl)bicyclo [2.2.1]heptane-1-carboxylic acid] | 1400 nM | – |
| O=C1CC[C@@H](CNCc2cnc3c(Nc4cccc(-c5cccc(/C=C(\F)c6cc7c(cn6)CN(CCC68CCC(C(=O)O)(CC6)C8)CC7)c5Cl)c4Cl)nccc3c2)N1 [Example 75, (S,Z)-4-(2-(6-(2-(2,2′-dichloro-3′-((3-((((5-oxopyrrolidin-2-yl)methyl)amino)methyl)-1,7-naphthyridin-8-yl)amino)-[1,1′-biphenyl]-3-yl)-1-fluorovinyl)-3,4-dihydro-2,7-naphthyridin-2(1H)-yl)ethyl)bicyclo [2.2.1]heptane-1-carboxylic acid] | 1130 nM | – |
| O=C1CC[C@@H](CNCc2cnc3c(Nc4cccc(-c5cccc(NC(=O)c6cc7c(cn6)CN(CC68CCC(C(=O)O)(CC6)C8)CC7)c5Cl)c4Cl)nccc3c2)N1 [Example 78, (S)-4-((6-((2,2′-dichloro-3′-((3-((((5-oxopyrrolidin-2-yl)methyl)amino)methyl)-1,7-naphthyridin-8-yl)amino)-[1,1′-biphenyl]-3-yl)carbamoyl)-3,4-dihydro-2,7-naphthyridin-2(1H)-yl)methyl)bicyclo[2.2.1] heptane-1-carboxylic acid] | 504 nM | – |
